Results from ChEMBL document CHEMBL3243999, “Novel anxiolytic agents derived from alpha-amino-alpha-phenyl-o-tolyl-4H-triazoles and -imidazoles” (J Med Chem, 1978).

Experiments:
Mus musculus [1] = assay: Anticonvulsant activity in ip dosed CF-1 albino mouse assessed as antagonism of pentylenetetrazole-induced clonic convulsions; type: functional
Mus musculus [2] = assay: Anticonvulsant activity in ip dosed CF-1 albino mouse assessed as antagonism of thiosemicarbazide-induced lethality; type: functional; details: CF-1, ip
Mus musculus [3] = assay: Anticonvulsant activity in ip dosed CF-1 albino mouse assessed as antagonism of nicotine-induced tonic extensor convulsions; type: functional
Brain [4] = assay: Drug metabolism in mouse brain assessed as un-identified metabolite formation at 20 mg/kg, ip after 0.5 hrs by GLC-electron capture detection analysis; type: ADME, organism-based; parameters: dose 20 mg/kg, route intraperitoneal; details: in vivo
[5] = Retention time of the compound by GLC-electron capture detection analysis; type: physicochemical
Brain [6] = assay: Drug metabolism in Sprague-Dawley rat brain assessed as triazolam metabolite formation at 20 mg/kg, ip after 0.5 hrs by GLC-electron capture detection analysis; type: ADME, organism-based; parameters: dose 20 mg/kg, route intraperitoneal; details: in vivo
Brain [7] = assay: Drug metabolism in mouse brain assessed as unchanged drug level at 20 mg/kg, ip after 20 mins by GC-MS analysis; type: ADME, organism-based; parameters: dose 20 mg/kg, route intraperitoneal; details: in vivo
Mus musculus [8] = assay: Muscle relaxing activity in ip dosed CF-1 albino mouse assessed as depression of dish reflexes; type: functional
Mus musculus [9] = assay: Sedative activity in ip dosed CF-1 albino mouse assessed as muscle relaxation by measuring depression of traction; type: functional
Mus musculus [10] = assay: Anticonvulsant activity in ip dosed CF-1 albino mouse assessed as antagonism of nicotine-induced death; type: functional
Brain [11] = assay: Drug metabolism in Sprague-Dawley rat brain assessed as unchanged drug level at 20 mg/kg, ip after 20 mins by GC-MS analysis; type: ADME, organism-based; parameters: dose 20 mg/kg, route intraperitoneal; details: in vivo
Mus musculus [12] = assay: Anxiolytic activity in ip dosed CF-1 albino mouse assessed as antagonism of electric shock-induced effect; type: functional; details: CF-1, ip
Rattus norvegicus = assay: Anticonvulsant activity in po dosed Sprague-Dawley rat assessed as antagonism of pentylenetetrazole-induced clonic convulsions; type: functional
Mus musculus [13] = assay: Drug metabolism in mouse silylated blood assessed as triazolobenzodiazepine metabolite formation at 30 mg/kg, ip after 30 mins by GC-MS analysis; type: ADME, organism-based; parameters: dose 30 mg/kg, route intraperitoneal; details: in vivo, 0.5 h
Mus musculus [14] = assay: Muscle relaxing activity in ip dosed CF-1 albino mouse by chimney test; type: functional
Mus musculus [15] = assay: Anticonvulsant activity in po dosed CF-1 albino mouse assessed as antagonism of pentylenetetrazole-induced clonic convulsions; type: functional; details: CF-1, po
Brain [16] = assay: Retention time of the compound in mouse brain treated with (5-chloro-2-(3,5-dimethyl-4H-1,2,4-triazol-4-yl)phenyl)(2-chlorophenyl)methanamine at 20 mg/kg, ip after 0.5 hrs by GLC-electron capture detection analysis; type: ADME, organism-based; parameters: dose 20 mg/kg, route intraperitoneal; details: in vivo
Brain [17] = assay: Drug level in mouse brain treated with (5-chloro-2-(3,5-dimethyl-4H-1,2,4-triazol-4-yl)phenyl)(2-chlorophenyl)methanamine at 20 mg/kg, ip after 20 mins by GC-MS analysis; type: ADME, organism-based; parameters: dose 20 mg/kg, route intraperitoneal; details: in vivo
Brain [18] = assay: Drug level in Sprague-Dawley rat brain treated with (5-chloro-2-(3,5-dimethyl-4H-1,2,4-triazol-4-yl)phenyl)(2-chlorophenyl)methanamine at 20 mg/kg, ip after 20 mins by GC-MS analysis; type: ADME, organism-based; parameters: dose 20 mg/kg, route intraperitoneal; details: in vivo
[19] = Mus musculus, CF-1, ip, read-out: ED50

Row | SMILES | ED50 (Mus musculus [1]; [19]) [mg/kg] | ED50 (Mus musculus [2]) [mg/kg] | ED50 (Mus musculus [3]; [19]) [mg/kg] | ED50 (Mus musculus [8]; [19]) [mg/kg] | ED50 (Mus musculus [9]; [19]) [mg/kg] | ED50 (Mus musculus [10]; [19]) [mg/kg] | ED50 (Mus musculus [12]) [mg/kg] | ED50 (Mus musculus [14]; [19]) [mg/kg] | also measured
1 | Cc1nnc(C)n1-c1ccc(Cl)cc1C(N)c1ccccc1 (stereo unspecified) | 16 |  |  |  |  |  |  |  | 
2 | Cc1nnc(C)n1-c1ccc(Cl)cc1C(N)c1ccccc1Cl (stereo unspecified) | 1.2 | 0.4 | 0.5 | 3.2 | > 100 | 0.5 | > 100 | 6.3 | Drug metabolism (Brain [4]): metabolite_detected; Retention_time [5]: 9 min; Drug metabolism (Brain [6]): metabolite_notdetected; Drug metabolism (Brain [7]): 65 ng; Drug metabolism (Brain [11]): 272 ng; ED50 (Rattus norvegicus): > 50 mg/kg; Drug metabolism (Mus musculus [13]): metabolite_detected
3 | CC(C)=NC(c1ccccc1Cl)c1cc(Cl)ccc1-n1c(C)nnc1C (stereo unspecified) | 1.2 | 0.34 | 0.75 | 6.6 | > 30 | 0.85 |  | 6 | 
4 | Cc1nnc(CN(C)C)n1-c1ccc(Cl)cc1C(N)c1ccccc1Cl (stereo unspecified) | 0.2 | 0.09 | 0.25 | 0.56 | 1.4 | 0.18 | 40 | 0.71 | ED50 (Mus musculus [15]): 0.6 mg/kg; ED50 (Rattus norvegicus): 4.4 mg/kg
5 | CN/N=C/c1nnc(C)n1-c1ccc(Cl)cc1C(N)c1ccccc1Cl (stereo unspecified) | 1.2 |  | 1.3 | 0.4 | 20 | 1.4 | > 100 | 7 | 
6 | Cc1cn(-c2ccc(Cl)cc2C(N)c2ccccc2Cl)c(C)n1 (stereo unspecified) |  | 1.8 | 3.6 | 20 | > 100 | 3.6 | > 100 | > 100 | 
7 | Br.Cc1nccn1-c1ccc(Cl)cc1C(N)c1ccccc1 (stereo unspecified) |  |  | 9 | 16 | 32 | 9 |  | 18 | 
8 | Cc1nnc(CN)n1-c1ccc(Cl)cc1Cc1ccccc1 | 12.5 |  | 7 | 14 | 25 | 6.2 |  | 18 | 
9 | Cc1nnc(CN(C)C)n1-c1ccc(Cl)cc1C(=O)c1ccccc1Cl | 0.28 | 0.02 | 0.14 | 0.25 | 3.2 | 0.14 | 50 |  | 
10 | Cc1nnc(/C=N/N(C)C)n1-c1ccc(Cl)cc1C(N)c1ccccc1Cl (single isomer, unassigned) |  |  |  |  |  |  |  |  | ED50 (Mus musculus [3]): 4 mg/kg; ED50 (Mus musculus [1]): 5.6 mg/kg; ED50 (Mus musculus [8]): 7.1 mg/kg; ED50 (Mus musculus [9]): 50 mg/kg; ED50 (Mus musculus [10]): 4 mg/kg; ED50 (Mus musculus [14]): 16 mg/kg
11 | Cc1nnc(C2CC2)n1-c1ccc(Cl)cc1C(N)c1ccccc1Cl (single isomer, unassigned; isomer 1) | 40 |  | 2.3 |  | > 50 | 2.3 |  | 40 | ED50 (Mus musculus [8]): 4.5 mg/kg
12 | Cc1nnc(CO)n1-c1ccc(Cl)cc1C(N)c1ccccc1Cl (single isomer, unassigned; isomer 1) | 1.2 |  | 0.4 |  | 16 | 0.5 |  | 0.63 | ED50 (Mus musculus [8]): 1.1 mg/kg; ED50 (Mus musculus [15]): 6.2 mg/kg; ED50 (Rattus norvegicus): > 50 mg/kg
13 | Cc1nnc(/C=N/N(C)C)n1-c1ccc(Cl)cc1C(N)c1ccccc1Cl (single isomer, unassigned; isomer 1) | 8.9 |  | 5.6 | 11.2 | 71 | 8 | > 100 | 22 | 
14 | Cc1nnc(CO)n1-c1ccc(Cl)cc1C(N)c1ccccc1Cl (single isomer, unassigned; isomer 2) |  |  |  |  |  |  |  |  | ED50 (Mus musculus [3]): 0.3 mg/kg; ED50 (Mus musculus [1]): 1 mg/kg; ED50 (Mus musculus [8]): 3.5 mg/kg; ED50 (Mus musculus [9]): 8 mg/kg; ED50 (Mus musculus [10]): 0.3 mg/kg; ED50 (Mus musculus [14]): 0.5 mg/kg
15 | Cc1nnc(C2CC2)n1-c1ccc(Cl)cc1C(N)c1ccccc1Cl (stereo in doubt; 21b) |  |  |  |  |  |  |  |  | ED50 (Mus musculus [3]): 2.8 mg/kg; ED50 (Mus musculus [1]): >50 mg/kg; ED50 (Mus musculus [8]): 40 mg/kg; ED50 (Mus musculus [9]): >100 mg/kg; ED50 (Mus musculus [10]): 2 mg/kg; ED50 (Mus musculus [14]): 56 mg/kg
16 | Cc1nnc2n1-c1ccc(Cl)cc1C(c1ccccc1)=NC2 [ALPRAZOLAM] |  |  |  |  |  |  |  |  | Retention_time [5]: 12 min
17 | CN1C(=O)CN=C(c2ccccc2)c2cc(Cl)ccc21 [DIAZEPAM] | 0.8 | 0.2 | 0.11 | 0.31 | 5 | 0.11 | 20 |  | ED50 (Rattus norvegicus): 4.8 mg/kg
18 | Cc1nnc2n1-c1ccc(Cl)cc1C(c1ccccc1Cl)=NC2 [TRIAZOLAM] | 0.04 | 0.028 | 0.04 | 0.1 | 0.7 | 0.04 | 23 | 0.056 | Retention_time (Brain [16]): 15 min; Retention_time [5]: 15 min; Drug metabolism (Brain [17]): 190 ng; Drug metabolism (Brain [18]): 4 ng; ED50 (Rattus norvegicus): 0.18 mg/kg
